Laboratory results published in patent publication US20240398844A1, “PHENYLCOUMARINS FOR TREATING INFLAMMATION” (Ohio State Innovation Foundation, priority 2021, published 2024).

Legend:
PPAR-γ = biological target: T1, PPAR-γ (Homo sapiens, UniProt P37231); assay: PPAR-γ ELISA Assay in HeLa cells (in vitro PPAR-γ assay); format: cell-based; details: 50 μg/mL; for activation at 50 µg/mL: Table 2; for % Activation PPAR-γ: Table 4
T1 construct: endogenous in cells; host or cells: HeLa
T1 sequence (P37231 1-505): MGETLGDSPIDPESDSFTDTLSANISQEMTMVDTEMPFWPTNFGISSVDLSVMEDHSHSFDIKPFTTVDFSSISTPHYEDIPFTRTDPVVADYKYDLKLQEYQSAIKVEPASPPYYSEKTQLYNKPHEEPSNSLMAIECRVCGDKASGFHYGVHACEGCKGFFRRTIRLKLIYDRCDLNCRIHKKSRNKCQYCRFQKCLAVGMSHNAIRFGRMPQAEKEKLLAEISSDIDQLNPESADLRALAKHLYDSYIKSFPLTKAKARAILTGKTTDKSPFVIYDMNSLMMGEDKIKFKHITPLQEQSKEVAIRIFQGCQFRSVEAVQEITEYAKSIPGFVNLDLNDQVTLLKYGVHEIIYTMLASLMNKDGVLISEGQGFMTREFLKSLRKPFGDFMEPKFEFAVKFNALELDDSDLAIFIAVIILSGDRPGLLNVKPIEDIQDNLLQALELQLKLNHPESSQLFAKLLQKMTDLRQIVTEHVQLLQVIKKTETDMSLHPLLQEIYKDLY
Method: In addition to the Western blot, the diverse library was also screened in the in vitro PPAR-γ assay. […] The compounds were tested at 50 μg/mL according to the protocol detailed in section 3.2.3.

HbA1C = assay: Diabetic zebrafish Western blot, HbA1C expression; format: in vivo; details: diabetic zebrafish, 10 μM, library screen, FIG. 2 / FIG. 11
Method: (§1) Alloxan-induced diabetic zebrafish were treated with compounds for immunoblot to validate the newly developed animal model, determine the antidiabetic potential of natural product leads, evaluate glucose metabolism, and discover possible mechanisms of action.
(§2) At 72 hpf, naturally dechorionated zebrafish were sorted into a 24-well microplate with 10 fish per well. Type 2 diabetes was induced with the diabetogenic agent alloxan at a dose of 0.5 mg/mL in system water for 3 hours. […] After 3 hours of treatment with natural product samples, 10 mg/mL D-glucose was administered in system water for 30 minutes, followed by 1 hour in fresh system water to metabolize the glucose and natural product leads. Upon completion of the 4-phase treatment cycle, zebrafish treatment groups were snap frozen into individual microcentrifuge tubes on dry ice, stored overnight at −80° C., thawed, homogenized with 2 μL PBS per animal, and centrifuged at 4° C. for 1 hour at 17,000 rpm. Protein content of homogenate supernatant was determined using the Pierce BCA Protein Assay kit (Pierce Biotechnology) and bovine serum albumin (BSA) standard curve. Absorbance of protein solutions from zebrafish homogenates and serial dilutions of the BSA standard were measured at 544 nm, using a FLUOstar Optima plate reader (BMG Labtechnologies GmbH, Inc.). Homogenates were analyzed by Western blot. Equal amounts of protein (20 μg) were combined with 4× lithium dodecyl sulphate (LDS) loading buffer (NuPAGE, Life Technologies, Carlsbad, CA, USA), brought to volume (15 μL) with PBS, and heated to 95° C. for 5 minutes. Proteins were resolved using NuPAGE Bis-Tris 4-12% gradient sodium dodecyl sulfate polyacrylamide gel electrophoresis (SDS-PAGE) gels together with SeeBlue Plus2 Pre-Stained Standard Ladder (Life Technologies).
(§3) Electrophoresis was performed using NuPAGE MES SDS Running Buffer and XCell SureLock Mini-Cell Electrophoresis System (Life Technologies). Separated proteins were transferred from the gel to a polyvinylidene fluoride (PVDF) membrane using tris buffered saline with Tween-20 (TBST) buffer. The blots were blocked in 3% BSA in TBST and subsequently probed using primary antibodies (1:1000 in 1% BSA in TBST) against each target overnight (Table 1). The secondary, horseradish peroxidase (HRP) conjugated antibodies (1:2000) were obtained from Santa Cruz Biotechnology Inc., (Santa Cruz, CA, USA). Conjugated antibodies were detected using SuperSignal West Femto chemiluminescent substrate from Pierce Biotechnology. Western blots were visualized, and images captured using a luminometer and LumiAnalyst 3.0 software (Boehringer-Mannheim, Mannheim, Germany). Band density was quantified for proteins of interest using ImageJ Gel Analysis.
(§4) In the case of duplicate blots, the band density results were expressed in bar graphs as the mean±standard error of the mean (SEM) of two independent experiments. Due to the labor- and time-intensive aspect of Western blot analysis with multiple target proteins, a maximum of two independent immunoblot experiments were performed per compared sample set. […] Additionally, treatment groups were also evaluated versus the diabetic, untreated control group for significance by Student's f-test and indicated in the bar graphs with p values represented by *p<0.05, **p<0.01, and ***p<0.001. […]

PEPCK = assay: Diabetic zebrafish Western blot, PEPCK expression; format: in vivo; details: 10 μM, library screen, FIG. 4 / FIG. 11
Method: as §1
(§5) At 72 hpf, naturally dechorionated zebrafish were sorted into a 24-well microplate with 10 fish per well. Type 2 diabetes was induced with the diabetogenic agent alloxan at a dose of 0.5 mg/mL in system water for 3 hours. The incubation solution was changed to 0.01% DMSO in system water with compounds at concentrations of 20 μg/mL or […], respectively. After 3 hours of treatment with natural product samples, 10 mg/mL D-glucose was administered in system water for 30 minutes, followed by 1 hour in fresh system water to metabolize the glucose and natural product leads. Upon completion of the 4-phase treatment cycle, zebrafish treatment groups were snap frozen into individual microcentrifuge tubes on dry ice, stored overnight at −80° C., thawed, homogenized with 2 μL PBS per animal, and centrifuged at 4° C. for 1 hour at 17,000 rpm. Protein content of homogenate supernatant was determined using the Pierce BCA Protein Assay kit (Pierce Biotechnology) and bovine serum albumin (BSA) standard curve. Absorbance of protein solutions from zebrafish homogenates and serial dilutions of the BSA standard were measured at 544 nm, using a FLUOstar Optima plate reader (BMG Labtechnologies GmbH, Inc.). Homogenates were analyzed by Western blot. Equal amounts of protein (20 μg) were combined with 4× lithium dodecyl sulphate (LDS) loading buffer (NuPAGE, Life Technologies, Carlsbad, CA, USA), brought to volume (15 μL) with PBS, and heated to 95° C. for 5 minutes. Proteins were resolved using NuPAGE Bis-Tris 4-12% gradient sodium dodecyl sulfate polyacrylamide gel electrophoresis (SDS-PAGE) gels together with SeeBlue Plus2 Pre-Stained Standard Ladder (Life Technologies).
as §3, with “Western blots were visualized, and images captured using a luminometer and LumiAnalyst 3.0 software (Boehringer-Mannheim, Mannheim, Germany).” left out, “Analysis. […]” for “Analysis.”

NFκB p65 = assay: Diabetic zebrafish Western blot, NFκB expression; format: in vivo; details: diabetic zebrafish, 10 μM, FIG. 5
Method: as §1, §2, §3, §4

GLUT-4 = assay: Diabetic zebrafish Western blot, GLUT-4 expression; format: in vivo; details: 10 μM, FIG. 5
Method: as §1
as §5, with “Proteins were resolved using NuPAGE Bis-Tris 4-12% gradient sodium dodecyl sulfate polyacrylamide gel electrophoresis (SDS-PAGE) gels together with SeeBlue Plus2 Pre-Stained Standard Ladder (Life Technologies).” left out
Electrophoresis was performed using NuPAGE MES SDS Running Buffer and XCell SureLock Mini-Cell Electrophoresis System (Life Technologies). […] Conjugated antibodies were detected using SuperSignal West Femto chemiluminescent substrate from Pierce Biotechnology. […] Band density was quantified for proteins of interest using ImageJ Gel Analysis. […]

## Oc1cccc(CCc2ccc3c(c2)OCO3)c1 [Compound 16]
PPAR-γ
  activation at 50 µg/mL: 0%

## COc1ccc(-c2cc(=O)c3c(O)cc(O)cc3o2)cc1 [Compound 17]
PPAR-γ
  activation at 50 µg/mL: 0%

## COc1cc(O)c2c(c1)OC(c1ccc(O)cc1)CC2=O (stereo not drawn) [Compound 19]
HbA1C
  HbA1C expression (Western blot band density): lowest glycated hemoglobin levels
PPAR-γ
  activation at 50 µg/mL: 77%

## O=c1cc(-c2ccc(O)cc2)oc2c([C@H]3OC(CO)[C@@H](O)[C@H](O)C3O)c(O)cc(O)c12 (stereo partly drawn) [Compound 21]
HbA1C
  HbA1C expression (Western blot band density): lowest glycated hemoglobin levels
PPAR-γ
  activation at 50 µg/mL: 57%

## COc1cc(O[C@@H]2OC(CO)[C@H](O)[C@H](O)C2O)c2c(-c3ccc(O)c(O)c3)cc(=O)oc2c1 (stereo partly drawn) [Compound 22]
PEPCK
  PEPCK expression (Western blot band density): 31>rosiglitazone>22>23 and greatest PEPCK expression
PPAR-γ
  activation at 50 µg/mL: 21%
  % Activation PPAR-γ: 21%
NFκB p65
  NFκB expression (Western blot): excellent inhibition of NFκB expression
GLUT-4
  GLUT-4 expression (Western blot): strong GLUT-4 expression

## COc1cc(O[C@@H]2OC(CO)[C@@H](O)[C@H](O)C2O)c2c(-c3ccc(O)c(O)c3)cc(=O)oc2c1 (stereo partly drawn) [Compound 23]
PEPCK
  PEPCK expression (Western blot band density): 31>rosiglitazone>22>23
PPAR-γ
  activation at 50 µg/mL: 145%
  % Activation PPAR-γ: 145%
PPAR-γ; versus positive control rosiglitazone
  PPAR-γ activity in the in vitro assay (in words): top performers
NFκB p65
  NFκB expression (Western blot): excellent inhibition of NFκB expression
GLUT-4
  GLUT-4 expression (Western blot): strong GLUT-4 expression

## CC(C)(O)CCC(=O)[C@](C)(O)[C@H]1[C@H](O)C[C@@]2(C)C3CC=C4[C@@H](CC(O)[C@H](O[C@@H]5OC(CO)[C@@H](O)[C@H](O)C5O)C4(C)C)C3C(=O)C[C@@]12C (stereo partly drawn) [Compound 27]
PPAR-γ
  activation at 50 µg/mL: 65%

## C[C@]12C[C@@H](O)CC3(CCC4[C@@](C)(CCC[C@@]4(C)C(=O)O[C@@H]4OC(CO)[C@@H](O[C@@H]5OC[C@H](O)[C@H](O)C5O)[C@H](O)C4O)C3C(=O)O1)C2 (stereo partly drawn) [Compound 28]
PPAR-γ
  activation at 50 µg/mL: 0%

## C=C1CC[C@H]2C(=C)CC[C@H]3C(=C)C(=O)O[C@@H]3[C@@H]12 [Compound 29]
PPAR-γ
  activation at 50 µg/mL: 0%

## C/C=C/C1=CC=C/C(=C2/C(=O)CCNC2=O)O1 [Compound 30]
PPAR-γ
  activation at 50 µg/mL: 37%
